In experiment [1] the test system is Kibdelosporangium aridum. Nature of the experiment: Susceptibility of K. aridum to antibiotics, disk diffusion. The format is cell-based. Conditions: for Susceptibility of K. aridum: 28° C., one week. The procedure:
Susceptibility of K. aridum to antibiotics was examined by placing BBL susceptibility disks on nutrient agar plates seeded with K. aridum as an overlay. Diameters of the zones of inhibition were measured after incubation for one week at 28° C.
Susceptibility to Antibiotics. […] Chlortetracycline ([…]) produced 18 mm zones of inhibition; tetracycline (5 μg) 11-12 mm zones; rifampin (5 μg) 11-15 mm zones; novobiocin (5 μg) 27-28 mm zones. All zones of inhibition contained at least a few resistant colonies.
Background: Agar diffusion results depend on both activity and mobility in agar.

Experiment [2] relates to swine ileal or cecal inoculum. The experiment can be described thus: Swine in vitro model (ileal/cecal inoculum fermentation). More on the design: species or system swine (Yorkshire barrow).
For experiment [3], the system named is rumen inoculum. Nature of the experiment: Rumen in vitro model. More on the design: species or system steer.

Where a SMILES comes first, the peptide text is derived from it. Bridges are numbered along the chain shown (N, C = ends). [ ]: non-standard residue; d: D form. The star is where a group is joined. Ileψ(thiazoline)Cys = CC[C@H](C)[C@H](N)C1=N[C@H](C(=O)*)CS1; dOrn = NCCC[C@@H](N)C(=O)O

Consider `CC[C@H](C)[C@H](N)C1=N[C@H](C(=O)N[C@@H](CC(C)C)C(=O)N[C@H](CCC(=O)O)C(=O)N[C@H](C(=O)N[C@H]2CCCCNC(=O)[C@H](CC(N)=O)NC(=O)[C@@H](CC(=O)O)NC(=O)[C@H](Cc3cnc[nH]3)NC(=O)[C@@H](Cc3ccccc3)NC(=O)[C@H]([C@@H](C)CC)NC(=O)[C@@H](CCCN)NC2=O)[C@@H](C)CC)CS1` [bacitracin] ({Ileψ(thiazoline)Cys}-L[dE]IK[dOrn]I[dF]H[dD]N; lactam 4-C), for which the “Susceptibility of K. aridum” value in experiment [1] (disk 2 units) is “resistant”.
On to `CN(C)[C@@H]1C(O)=C(C(N)=O)C(=O)[C@@]2(O)C(O)=C3C(=O)c4c(O)ccc(Cl)c4[C@@](C)(O)[C@H]3C[C@@H]12` [Chlortetracycline], for which, in experiment [1] (disk 5 g (so in the source), zones contained a few resistant colonies), the Zone of inhibition is 18 mm.
Consider `NC[C@H]1O[C@H](O[C@H]2[C@H](O)[C@@H](O[C@H]3O[C@H](CO)[C@@H](O)[C@H](N)[C@H]3O)[C@H](N)C[C@@H]2N)[C@H](N)C[C@@H]1O` [tobramycin], for which the “Susceptibility of K. aridum” value in experiment [1] (disk 10 μg) is listed as “resistant”.
For `CCC[C@@H]1C[C@@H](C(=O)N[C@@H]([C@H]2O[C@H](SC)[C@H](O)[C@@H](O)[C@H]2O)[C@H](C)Cl)N(C)C1` [clindamycin], in experiment [1] (disk 2 μg), the “Susceptibility of K. aridum” value is given as “resistant”.
As to `CC(=O)OCC1=C(C(=O)O)N2C(=O)[C@@H](NC(=O)Cc3cccs3)[C@H]2SC1` [cephalothin], the “Susceptibility of K. aridum” value in experiment [1] (disk 30 μg) is on record as “resistant”.
As for `CC1(C)S[C@@H]2[C@H](NC(=O)Cc3ccccc3)C(=O)N2[C@H]1C(=O)O` [penicillin], the “Susceptibility of K. aridum” value in experiment [1] (disk 10 units) is given as “resistant”.
Regarding `CN[C@H](CC(C)C)C(=O)N[C@H]1C(=O)N[C@@H](CC(N)=O)C(=O)N[C@H]2C(=O)N[C@H]3C(=O)N[C@H](C(=O)N[C@H](C(=O)O)c4cc(O)cc(O)c4-c4cc3ccc4O)[C@H](O)c3ccc(c(Cl)c3)Oc3cc2cc(c3O[C@@H]2O[C@H](CO)[C@@H](O)[C@H](O)[C@H]2O[C@H]2C[C@](C)(N)[C@H](O)[C@H](C)O2)Oc2ccc(cc2Cl)[C@H]1O` [Vancomycin], the “Susceptibility of K. aridum” value in experiment [1] (disk 30 μg) is given as “resistant”. Moreover, in experiment [2] (1.67 ppm), the GLU was determined as 100 % Control, the LAC is on record as 99 % Control, the LYS is 83 % Control and the VFA is recorded as 92 % Control. In experiment [2] (16.67 ppm), this compound had a GLU of 189 % Control, an LAC of 59 % Control, an LYS of 42 % Control and a VFA of 280 % Control. In experiment [2] (166.67 ppm), this compound displayed a GLU of 190 % Control, an LAC of 64 % Control, an LYS of 48 % Control and a VFA of 250 % Control. Further, in experiment [3] (0.5 ppm), the “% PR” value is given as 105% OF CONTROL, the ACE worked out at 95% OF CONTROL, the AMO was found to be 0% OF CONTROL and the BUT was 96% OF CONTROL. In experiment [3] (0.5 ppm), this compound yielded a DLAC of 0% OF CONTROL, an ETOH of 0% OF CONTROL, an IBU of 115% OF CONTROL and an IVA of 82% OF CONTROL. For the same compound, in experiment [3] (0.5 ppm), the LLAC was 0% OF CONTROL, the PRO is listed as 103% OF CONTROL, the TOTAL turned out to be 97% OF CONTROL and the UREA is on record as 0% OF CONTROL. In experiment [3] (0.5 ppm), this compound registered a VAL of 95% OF CONTROL and a VFA of 97 % Control. Moreover, in experiment [3] (5 ppm), the “% PR” value was 130% OF CONTROL, the ACE came out at 93% OF CONTROL, the AMO came to 0% OF CONTROL and the BUT is 98% OF CONTROL. In experiment [3] (5 ppm), this compound came in with a DLAC of 0% OF CONTROL, an ETOH of 0% OF CONTROL, an IBU of 137% OF CONTROL and an IVA of 99% OF CONTROL. Also, in experiment [3] (5 ppm), the LLAC amounted to 43% OF CONTROL, the TOTAL is listed as 108% OF CONTROL, the UREA is 0% OF CONTROL and the VAL was found to be 90% OF CONTROL. The VFA in experiment [3] (5 ppm) was 108 % Control. Also, the Propionate % in experiment [3] (5 ppm, propionate as % of total VFA) is given as 130 % Control. Further, in experiment [3] (50 ppm), the “% PR” value was 127% OF CONTROL, the ACE is listed as 87% OF CONTROL, the AMO was 0% OF CONTROL and the BUT was 111% OF CONTROL. In experiment [3] (50 ppm), this compound displayed a DLAC of 0% OF CONTROL, an ETOH of 0% OF CONTROL, an IBU of 164% OF CONTROL and an IVA of 212% OF CONTROL. In addition, in experiment [3] (50 ppm), the LLAC is 999% OF CONTROL, the PRO is listed as 136% OF CONTROL, the TOTAL is recorded as 107% OF CONTROL and the UREA is on record as 0% OF CONTROL. In experiment [3] (50 ppm), the VAL stood at 83% OF CONTROL and the VFA is 107 % Control.

The values are drawn from patent publication US4797280A, “Antibiotics produced by Kibdelosporangium aridum Shearer gen. nov., sp. nov. ATCC 39323” (SmithKline Beckman Corporation, priority 1986, dated 1989).
